Calls of active or inactive are those of the source.
What was measured:
[1] = growth suppression of beta-catenin-knockout colon cells, dose response, cell-based, HCT116, human colon tumor (AID 1045); format: functional;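 note: HCT116 colon tumor cells with beta catenin knocked out; cells exposed to compound for 60 hours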
[2] = test system: INS1; test: beta cell apoptosis inhibitors, cytokine rescue, dose response, luminescence, retest (AID 449756); format: functional, cell-based; details: Rattus norvegicus, INS1;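 note: cell death triggered by IL-1 beta plus TNF-alpha plus IFN-gamma mixture; protective hits raise ATP signal compared with cytokine alone wells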
[3] = inhibitors of intracellular T. cruzi replication, confirmation, NIH3T3 host cells, beta-gal luminescence (AID 2044); format: functional, cell-based;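 note: intracellular parasites grown in NIH/3T3 mouse fibroblasts as host cells; luminescent beta-galactosidase reporter signal from transgenic T. cruzi replicating inside host cells; inhibitors lower the luminescence signal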
[4] = test system: Streptococcus; test: Group A Streptococcus viability loss, dose response, counter-screen for streptokinase expression inhibitor project, luminescence, BacTiterGlo (AID 1915); format: functional, organism-based;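 note: potency for reduction of bacterial viability or growth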
[5] = molecular target: T1, Replicative DNA helicase DnaB (Mycobacterium tuberculosis, UniProt P9WMR3); test: DnaB intein splicing inhibitors, dose response, biochemical, cell-free fluorescence (AID 449749); format: functional
T1 sequence (P9WMR3 whole entry): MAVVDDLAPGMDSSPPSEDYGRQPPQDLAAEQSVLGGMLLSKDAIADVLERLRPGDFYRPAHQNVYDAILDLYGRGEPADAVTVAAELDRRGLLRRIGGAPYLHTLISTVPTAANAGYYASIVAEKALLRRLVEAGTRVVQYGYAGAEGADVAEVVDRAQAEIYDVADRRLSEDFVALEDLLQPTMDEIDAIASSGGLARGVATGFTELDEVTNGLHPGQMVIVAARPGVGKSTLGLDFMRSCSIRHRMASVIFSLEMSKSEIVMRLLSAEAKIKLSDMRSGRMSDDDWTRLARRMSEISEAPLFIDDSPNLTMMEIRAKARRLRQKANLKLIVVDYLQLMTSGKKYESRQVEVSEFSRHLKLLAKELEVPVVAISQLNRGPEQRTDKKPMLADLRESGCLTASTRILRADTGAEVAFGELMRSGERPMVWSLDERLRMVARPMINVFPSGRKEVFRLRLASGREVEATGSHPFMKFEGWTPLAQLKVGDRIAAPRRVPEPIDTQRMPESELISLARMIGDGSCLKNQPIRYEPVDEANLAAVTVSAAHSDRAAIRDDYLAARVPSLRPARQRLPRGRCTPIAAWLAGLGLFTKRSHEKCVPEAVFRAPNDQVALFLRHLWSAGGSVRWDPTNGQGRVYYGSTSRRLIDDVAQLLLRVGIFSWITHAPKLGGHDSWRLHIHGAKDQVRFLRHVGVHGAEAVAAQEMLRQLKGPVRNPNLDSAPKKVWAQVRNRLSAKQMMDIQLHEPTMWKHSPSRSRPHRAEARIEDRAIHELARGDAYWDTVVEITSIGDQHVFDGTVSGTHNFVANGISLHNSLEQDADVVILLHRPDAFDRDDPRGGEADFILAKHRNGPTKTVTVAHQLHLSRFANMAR

[6] = molecular target: T2, Streptokinase A (Streptococcus pyogenes serotype M1, UniProt P10520); test: S. pyogenes streptokinase expression inhibitors, potency, dose response, plasminogen activation absorbance, OD405 (AID 1914); format: functional, Streptococcus pyogenes M1 GAS;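 note: secreted streptokinase activity via plasminogen activation per viability signal from cell pellet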
T2 sequence (P10520 whole entry): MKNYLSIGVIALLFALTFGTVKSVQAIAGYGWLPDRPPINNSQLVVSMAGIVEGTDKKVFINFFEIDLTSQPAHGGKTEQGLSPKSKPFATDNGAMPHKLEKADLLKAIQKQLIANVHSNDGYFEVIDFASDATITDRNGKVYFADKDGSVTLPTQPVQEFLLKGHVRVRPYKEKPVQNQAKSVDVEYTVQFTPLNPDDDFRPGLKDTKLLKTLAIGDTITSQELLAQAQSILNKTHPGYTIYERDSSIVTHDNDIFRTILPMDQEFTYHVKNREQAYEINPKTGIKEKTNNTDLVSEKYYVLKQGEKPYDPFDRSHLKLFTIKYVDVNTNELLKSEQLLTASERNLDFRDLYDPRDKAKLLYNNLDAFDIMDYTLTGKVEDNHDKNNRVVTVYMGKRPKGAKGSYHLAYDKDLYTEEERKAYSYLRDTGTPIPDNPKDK

[7] = growth suppression of PTEN-null colon cells, dose response, cell-based, HCT116 PTEN knockout (AID 1047); format: functional;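 note: HCT116 colon tumor cells with PTEN knocked out; cells exposed to compound for 60 hours before readout; potency for loss of cell viability measured by luminescence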
[8] = cytotoxicity toward NIH3T3 fibroblasts, dose response, counter-screen, cell-based, ATP luminescence, mouse fibroblasts (AID 2010); format: functional;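 note: cells exposed to compound for about 90 hours before reading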
[9] = test system: Vero; test: Vero cell cytotoxicity, cytotoxicity control for flavivirus capping enzyme inhibitors (AID 588742); format: functional; details: Chlorocebus sabaeus
[10] = test system: Streptococcus sp. 'group A'; test: growth inhibition of control SK(-) GAS strain, dose response, counter-screen for streptokinase expression inhibitor project, luminescence, kanamycin, BacTiterGlo, confirmation (AID 1900); format: functional, organism-based
[11] = molecular target: Heat shock protein HSP 90-alpha (Homo sapiens, UniProt P07900); format: functional, organism-based
[12] = molecular target: T3, Protein RecA (Mycobacterium tuberculosis, UniProt P9WHJ3); test: Fluorescence Cell-Free Homogeneous Dose Retest to Identify Inhibitors of RecA-Intein Splicing Activity. [Related pubchem assays (depositor defined):AID2097, AID2223, AID489010, AID492950]; format: functional
T3 sequence (P9WHJ3 whole entry): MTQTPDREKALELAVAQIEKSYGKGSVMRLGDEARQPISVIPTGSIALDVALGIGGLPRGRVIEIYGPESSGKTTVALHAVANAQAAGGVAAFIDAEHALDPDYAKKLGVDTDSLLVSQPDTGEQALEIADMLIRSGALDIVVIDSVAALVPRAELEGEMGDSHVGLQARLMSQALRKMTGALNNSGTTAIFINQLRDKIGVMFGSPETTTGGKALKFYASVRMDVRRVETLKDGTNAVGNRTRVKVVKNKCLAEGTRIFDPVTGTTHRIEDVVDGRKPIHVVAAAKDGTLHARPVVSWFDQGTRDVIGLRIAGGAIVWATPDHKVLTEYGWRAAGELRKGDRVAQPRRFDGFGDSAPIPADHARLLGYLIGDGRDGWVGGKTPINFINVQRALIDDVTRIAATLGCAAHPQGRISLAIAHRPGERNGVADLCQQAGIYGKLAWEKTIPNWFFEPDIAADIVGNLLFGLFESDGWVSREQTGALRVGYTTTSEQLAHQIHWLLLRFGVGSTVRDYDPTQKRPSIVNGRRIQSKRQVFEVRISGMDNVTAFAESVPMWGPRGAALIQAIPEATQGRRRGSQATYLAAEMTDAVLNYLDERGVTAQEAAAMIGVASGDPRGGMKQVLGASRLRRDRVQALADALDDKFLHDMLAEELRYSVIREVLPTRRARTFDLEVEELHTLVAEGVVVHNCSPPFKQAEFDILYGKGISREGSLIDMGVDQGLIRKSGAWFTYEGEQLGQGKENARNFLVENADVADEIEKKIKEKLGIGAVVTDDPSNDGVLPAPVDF

[13] = molecular target: T4, Mannose-6-phosphate isomerase (Homo sapiens, UniProt P34949); test: human PMI inhibitors, high substrate, primary screen, biochemical, fluorescence intensity, high mannose 6-phosphate (AID 1220)
T4 sequence (P34949 whole entry): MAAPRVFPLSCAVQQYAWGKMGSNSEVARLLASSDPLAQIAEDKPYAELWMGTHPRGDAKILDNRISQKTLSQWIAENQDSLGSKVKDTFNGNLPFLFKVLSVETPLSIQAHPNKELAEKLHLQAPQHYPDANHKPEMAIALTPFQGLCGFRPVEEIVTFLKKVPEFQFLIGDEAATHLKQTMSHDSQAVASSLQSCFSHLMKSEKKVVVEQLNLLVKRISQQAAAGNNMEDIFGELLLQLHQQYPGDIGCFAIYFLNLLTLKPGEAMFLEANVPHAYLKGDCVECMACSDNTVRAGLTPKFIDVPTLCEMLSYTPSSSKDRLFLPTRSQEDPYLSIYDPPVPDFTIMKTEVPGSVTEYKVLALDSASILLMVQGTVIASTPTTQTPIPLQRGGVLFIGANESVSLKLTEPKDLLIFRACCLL

[14] = molecular target: T5, Leucine aminopeptidase (Plasmodium falciparum 3D7, UniProt Q8IL11); test: P. falciparum M17LAP inhibitors, primary screen, biochemical, fluorogenic H-Leu-NHMec substrate, 1536-well (AID 1619); format: functional
T5 sequence (Q8IL11 whole entry): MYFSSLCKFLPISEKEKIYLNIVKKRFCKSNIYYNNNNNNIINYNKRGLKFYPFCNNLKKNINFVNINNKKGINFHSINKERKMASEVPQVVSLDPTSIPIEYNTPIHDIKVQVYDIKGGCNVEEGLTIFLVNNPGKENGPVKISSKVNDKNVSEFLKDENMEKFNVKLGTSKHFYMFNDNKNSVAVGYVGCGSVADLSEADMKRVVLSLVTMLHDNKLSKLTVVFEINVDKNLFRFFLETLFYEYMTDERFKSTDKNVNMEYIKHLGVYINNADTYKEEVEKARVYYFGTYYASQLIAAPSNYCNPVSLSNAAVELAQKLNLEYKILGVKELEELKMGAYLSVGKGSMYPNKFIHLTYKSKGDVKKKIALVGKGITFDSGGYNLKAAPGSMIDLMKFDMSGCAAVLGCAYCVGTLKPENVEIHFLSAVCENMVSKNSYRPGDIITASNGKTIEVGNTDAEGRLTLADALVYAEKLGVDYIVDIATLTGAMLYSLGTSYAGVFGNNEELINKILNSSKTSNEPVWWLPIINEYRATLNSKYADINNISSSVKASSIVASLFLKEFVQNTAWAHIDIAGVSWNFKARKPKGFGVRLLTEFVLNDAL

[15] = molecular target: Procathepsin L (Homo sapiens, UniProt P07711); test: cathepsin L inhibitors, dose response, counter-screen for M1/M17 aminopeptidase inhibitor project, biochemical, QFRET, 1536-well (AID 2214)
Chain of Procathepsin L (P07711 whole entry): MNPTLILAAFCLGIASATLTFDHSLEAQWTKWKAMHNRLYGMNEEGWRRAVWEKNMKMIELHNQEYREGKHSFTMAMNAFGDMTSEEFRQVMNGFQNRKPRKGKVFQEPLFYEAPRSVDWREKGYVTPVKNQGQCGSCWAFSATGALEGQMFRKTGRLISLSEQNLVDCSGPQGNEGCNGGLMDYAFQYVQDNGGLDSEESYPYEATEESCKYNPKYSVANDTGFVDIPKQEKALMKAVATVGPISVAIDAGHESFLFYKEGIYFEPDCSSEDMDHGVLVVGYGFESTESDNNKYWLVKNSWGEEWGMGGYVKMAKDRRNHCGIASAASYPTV

[16] = molecular target: T6, Aspartyl aminopeptidase (Plasmodium falciparum 3D7, UniProt Q8I2J3); test: Counterscreen for inhibitors of M1 and M17 aminopeptidases: QFRET-based biochemical high throughput dose response assay for inhibitors of the Plasmodium falciparum M18 Aspartyl Aminopeptidase (PFM18AAP). [Related PubChem assays: 1619 (Screening assay (M17LAP inhibitors).), 1445 (Screening assay (M1AAP inhibitors).)]
T6 sequence (Q8I2J3 whole entry): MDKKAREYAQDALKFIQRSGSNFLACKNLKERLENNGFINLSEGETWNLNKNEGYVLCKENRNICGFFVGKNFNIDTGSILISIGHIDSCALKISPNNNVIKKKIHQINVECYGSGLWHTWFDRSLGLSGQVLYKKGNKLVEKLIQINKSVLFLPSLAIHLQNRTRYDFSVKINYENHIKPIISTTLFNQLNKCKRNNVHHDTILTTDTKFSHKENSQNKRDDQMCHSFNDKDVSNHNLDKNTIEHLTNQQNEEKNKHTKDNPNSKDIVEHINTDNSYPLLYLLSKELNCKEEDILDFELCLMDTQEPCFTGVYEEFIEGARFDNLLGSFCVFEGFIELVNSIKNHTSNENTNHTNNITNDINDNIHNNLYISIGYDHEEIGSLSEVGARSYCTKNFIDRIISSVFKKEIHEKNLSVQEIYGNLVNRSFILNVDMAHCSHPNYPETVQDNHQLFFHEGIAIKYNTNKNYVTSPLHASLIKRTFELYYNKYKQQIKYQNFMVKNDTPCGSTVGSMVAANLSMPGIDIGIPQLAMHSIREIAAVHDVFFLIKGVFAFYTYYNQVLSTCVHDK

| Compound | EC50 [1] | AC50 [2] | EC50 [3] | EC50 [4] | AC50 [5] | EC50 [6] | EC50 [7] | EC50 [8] | CC50 [9] | EC50 [10] | AC50 [11] | EC50 [12] | IC50 [13] | IC50 [14] | IC50 [15] | IC50 [16] |
| --- | --- | --- | --- | --- | --- | --- | --- | --- | --- | --- | --- | --- | --- | --- | --- | --- |
| CC(=O)C1=C(c2ccc(Br)cc2)C(=O)c2ccccc2C1=O | 1.81 µM (active) | 1.06 µM (active) | 2.01 µM (active) | 9.4 µM (active) | 3.05 µM (active) | 7.12 µM (active) | 1.98 µM (active) | 2.42 µM (active) | 9.68 µM (active) | 1 µM (active) | 7.99 µM (active) | 1.94 µM (active) | 3.13 µM (active) | – | – | – |
| Cc1ccc(Nc2nnc(SC(C)C(=O)Nc3c(C)n(C)n(-c4ccccc4)c3=O)s2)cc1 (stereo unspecified) | – | – | – | – | – | – | – | – | – | – | – | – | – | 3.86 µM (active) | > 59.6 µM (not active) | > 73.5 µM (not active) |

Reference: ChEMBL document CHEMBL1201862, “PubChem BioAssay data set” (2004)
